According to patent publication US9296757B2, “Substituted benzothienopyrimidines” (BAYER PHARMA AKTIENGESELLSCHAFT, priority 2012, dated 2016):

The compounds below were run against human full-length MKNK1 (Homo sapiens (Human), UniProt Q9BUB5, T344D) (assay: MKNK1 kinase high ATP assay (TR-FRET)). Conditions: high ATP (2 mM final), 15 min preincubation with enzyme.
Type: biochemical
Outline: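 GST-tagged full-length MKNK1 (T344D), insect-cell expressed, preincubated 15 min at 22 °C with compound, then reacted 30 min at 22 °C with 2 mM ATP and 0.06 μM biotinylated peptide in HEPES pH 7.5 buffer (final concentrations). Phospho-peptide detected by TR-FRET (665/620 nm ratio), normalised to no-inhibitor and no-enzyme controls.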

Sequence of human full-length MKNK1 (Q9BUB5 other isoform, or with tags, fused parts or gaps T344D): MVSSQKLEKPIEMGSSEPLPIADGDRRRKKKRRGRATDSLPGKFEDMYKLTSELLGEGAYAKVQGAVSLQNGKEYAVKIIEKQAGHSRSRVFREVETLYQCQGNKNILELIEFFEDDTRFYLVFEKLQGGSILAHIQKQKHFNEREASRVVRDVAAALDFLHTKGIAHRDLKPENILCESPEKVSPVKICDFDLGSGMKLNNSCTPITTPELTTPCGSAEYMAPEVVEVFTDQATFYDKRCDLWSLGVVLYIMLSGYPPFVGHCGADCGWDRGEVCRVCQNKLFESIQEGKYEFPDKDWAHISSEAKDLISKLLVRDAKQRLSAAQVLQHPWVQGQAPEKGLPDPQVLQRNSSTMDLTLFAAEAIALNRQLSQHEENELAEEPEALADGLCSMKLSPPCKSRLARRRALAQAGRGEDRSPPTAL

| IC50 [µM] | SMILES |
| --- | --- |
| 0.036 | CCN1CCN(C(=O)C2CCc3c(sc4ncnc(Nc5ccc6[nH]c(=O)sc6c5)c34)C2)CC1 (racemic) [Example 60, (RS)-6-({7-[(4-ethylpiperazin-1-yl)carbonyl]-5,6,7,8-tetrahydro[1]benzothieno[2,3-d]pyrimidin-4-yl}amino)-1,3-benzothiazol-2(3H)-one] |
| 0.032 | CC(=O)N(C)C1CCN(C(=O)C2CCc3c(sc4ncnc(Nc5ccc6[nH]c(=O)sc6c5)c34)C2)C1 (racemic) [Example 61, N-methyl-N-[(3RS)-1-({(7RS)-4-[(2-oxo-2,3-dihydro-1,3-benzothiazol-6-yl)amino]-5,6,7,8-tetrahydro[1]benzothieno[2,3-d]pyrimidin-7-yl}carbonyl)pyrrolidin-3-yl]acetamide] |
| 0.04 | CN(C)C(=O)CN(C)C(=O)C1CCc2c(sc3ncnc(Nc4ccc5[nH]c(=O)sc5c4)c23)C1 (racemic) [Example 62, (RS)-N-[2-(dimethylamino)-2-oxoethyl]-N-methyl-4-[(2-oxo-2,3-dihydro-1,3-benzothiazol-6-yl)amino]-5,6,7,8-tetrahydro[1]benzothieno[2,3-d]pyrimidine-7-carboxamide] |
| 0.038 | CCN(CCC#N)C(=O)C1CCc2c(sc3ncnc(Nc4ccc5[nH]c(=O)sc5c4)c23)C1 (racemic) [Example 63, (RS)-N-(2-cyanoethyl)-N-ethyl-4-[(2-oxo-2,3-dihydro-1,3-benzothiazol-6-yl)amino]-5,6,7,8-tetrahydro[1]benzothieno[2,3-d]pyrimidine-7-carboxamide] |
| 0.027 | O=C(C1CCc2c(sc3ncnc(Nc4ccc5[nH]c(=O)sc5c4)c23)C1)N1CCN2CCCCC2C1 (racemic) [Example 64, 6-({(7RS)-7-[(9aRS)-octahydro-2H-pyrido[1,2-a]pyrazin-2-ylcarbonyl]-5,6,7,8-tetrahydro[1]benzothieno[2,3-d]pyrimidin-4-yl}amino)-1,3-benzothiazol-2(3H)-one] |
| 0.081 | O=C(C1CCc2c(sc3ncnc(Nc4ccc5[nH]c(=O)sc5c4)c23)C1)N1CCCC(F)C1 (racemic) [Example 65, 6-{[(7RS)-7-{[(3RS)-3-fluoropiperidin-1-yl]carbonyl}-5,6,7,8-tetrahydro[1]benzothieno[2,3-d]pyrimidin-4-yl]amino}-1,3-benzothiazol-2(3H)-one] |
| 0.034 | CN(CCCCO)C(=O)C1CCc2c(sc3ncnc(Nc4ccc5[nH]c(=O)sc5c4)c23)C1 (racemic) [Example 66, (RS)-N-(4-hydroxybutyl)-N-methyl-4-[(2-oxo-2,3-dihydro-1,3-benzothiazol-6-yl)amino]-5,6,7,8-tetrahydro[1]benzothieno[2,3-d]pyrimidine-7-carboxamide] |
| 0.062 | CN(CCCO)C(=O)C1CCc2c(sc3ncnc(Nc4ccc5[nH]c(=O)sc5c4)c23)C1 (racemic) [Example 67, (RS)-N-(3-hydroxypropyl)-N-methyl-4-[(2-oxo-2,3-dihydro-1,3-benzothiazol-6-yl)amino]-5,6,7,8-tetrahydro[1]benzothieno[2,3-d]pyrimidine-7-carboxamide] |
| 0.032 | CC1CN(C(=O)C2CCc3c(sc4ncnc(Nc5ccc6[nH]c(=O)sc6c5)c34)C2)CC(C)O1 (racemic) [Example 68, 6-{[(7RS)-7-{[(2RS,6RS)-2,6-dimethylmorpholin-4-yl]carbonyl}-5,6,7,8-tetrahydro[1]benzothieno[2,3-d]pyrimidin-4-yl]amino}-1,3-benzothiazol-2(3H)-one] |
| 0.019 | CCCN(CCOC)C(=O)C1CCc2c(sc3ncnc(Nc4ccc5[nH]c(=O)sc5c4)c23)C1 (racemic) [Example 69, (RS)-N-(2-methoxyethyl)-4-[(2-oxo-2,3-dihydro-1,3-benzothiazol-6-yl)amino]-N-propyl-5,6,7,8-tetrahydro[1]benzothieno[2,3-d]pyrimidine-7-carboxamide] |
| 0.024 | CCN(CCOC)C(=O)C1CCc2c(sc3ncnc(Nc4ccc5[nH]c(=O)sc5c4)c23)C1 (racemic) [Example 70, (RS)-N-ethyl-N-(2-methoxyethyl)-4-[(2-oxo-2,3-dihydro-1,3-benzothiazol-6-yl)amino]-5,6,7,8-tetrahydro[1]benzothieno[2,3-d]pyrimidine-7-carboxamide] |
| 0.047 | O=C(C1CCc2c(sc3ncnc(Nc4ccc5[nH]c(=O)sc5c4)c23)C1)N1CCC(CO)CC1 (racemic) [Example 71, (RS)-6-[(7-{[4-(hydroxymethyl)piperidin-1-yl]carbonyl}-5,6,7,8-tetrahydro[1]benzothieno[2,3-d]pyrimidin-4-yl)amino]-1,3-benzothiazol-2(3H)-one] |
| 0.044 | COCCN1CCN(C(=O)C2CCc3c(sc4ncnc(Nc5ccc6[nH]c(=O)sc6c5)c34)C2)CC1 (racemic) [Example 72, (RS)-6-[(7-{[4-(2-methoxyethyl)piperazin-1-yl]carbonyl}-5,6,7,8-tetrahydro[1]benzothieno[2,3-d]pyrimidin-4-yl)amino]-1,3-benzothiazol-2(3H)-one] |
| 0.034 | CN(C)C1CCN(C(=O)C2CCc3c(sc4ncnc(Nc5ccc6[nH]c(=O)sc6c5)c34)C2)C1 (racemic) [Example 73, 6-{[(7RS)-7-{[(3RS)-3-(dimethylamino)pyrrolidin-1-yl]carbonyl}-5,6,7,8-tetrahydro[1]benzothieno[2,3-d]pyrimidin-4-yl]amino}-1,3-benzothiazol-2(3H)-one] |
| 0.047 | CN1CC2CC1CN2C(=O)C1CCc2c(sc3ncnc(Nc4ccc5[nH]c(=O)sc5c4)c23)C1 (racemic) [Example 74, 6-{[(7RS)-7-{[(1RS,4RS)-5-methyl-2,5-diazabicyclo[2.2.1]hept-2-yl]carbonyl}-5,6,7,8-tetrahydro[1]benzothieno[2,3-d]pyrimidin-4-yl]amino}-1,3-benzothiazol-2(3H)-one] |
| 0.032 | N#CC1CCCN(C(=O)C2CCc3c(sc4ncnc(Nc5ccc6[nH]c(=O)sc6c5)c34)C2)C1 (racemic) [Example 75, (3RS)-1-({(7RS)-4-[(2-oxo-2,3-dihydro-1,3-benzothiazol-6-yl)amino]-5,6,7,8-tetrahydro[1]benzothieno[2,3-d]pyrimidin-7-yl}carbonyl)piperidine-3-carbonitrile] |
| 0.054 | N#CC1CCN(C(=O)C2CCc3c(sc4ncnc(Nc5ccc6[nH]c(=O)sc6c5)c34)C2)CC1 (racemic) [Example 76, (RS)-1-({4-[(2-oxo-2,3-dihydro-1,3-benzothiazol-6-yl)amino]-5,6,7,8-tetrahydro[1]benzothieno[2,3-d]pyrimidin-7-yl}carbonyl)piperidine-4-carbonitrile] |
| 0.041 | COCC1CCCN1C(=O)C1CCc2c(sc3ncnc(Nc4ccc5[nH]c(=O)sc5c4)c23)C1 (racemic) [Example 77, 6-{[(7RS)-7-{[(2RS)-2-(methoxymethyl)pyrrolidin-1-yl]carbonyl}-5,6,7,8-tetrahydro[1]benzothieno[2,3-d]pyrimidin-4-yl]amino}-1,3-benzothiazol-2(3H)-one] |
| 0.034 | O=C(C1CCc2c(sc3ncnc(Nc4ccc5[nH]c(=O)sc5c4)c23)C1)N1CCN(CC2CC2)CC1 (racemic) [Example 78, (RS)-6-[(7-{[4-(cyclopropylmethyl)piperazin-1-yl]carbonyl}-5,6,7,8-tetrahydro[1]benzothieno[2,3-d]pyrimidin-4-yl)amino]-1,3-benzothiazol-2(3H)-one] |
